Data as given in patent US4550186A, “Binuclear copper (II) carboxylates formed from amine-carboxyboranes” (Duke University, priority 1983, dated 1985).

Assays:
[1] = system: Ehrlich ascites carcinoma; experiment: Ehrlich ascites carcinoma growth in CF1 male mice; assay type: in vivo, mouse
Procedure: CF1 male mice (~30 g) were implanted with 2×10^6 Ehrlich ascites tumor cells, intraperitoneally on Day 0. Compound I was suspended by homogenation in 0.05% polysorbate.80-water and administered intraperitoneally at 10 and 20 mg/kg for 9 days to determine its effectiveness for inhibition of tumor growth. Mice were sacrificed on Day 10, and the ascites fluid was collected from the peritoneal cavity. The volume and ascrit (packed cell volume) were determined for each animal and the percent inhibition of tumor growth was calculated. For the metabolic studies, mice were treated on Days 8 and 9 with 10 mg/kg of Compound I, intraperitoneally. The animal was sacrificed on Day 10 and the ascites fluid harvested. The in vitro metabolic studies were performed at […] final concentration of Compound I.

[2] = doses of 150-200 mg/kg; cited from earlier work

Sc1ncnc2nc[nH]c12 [6-mercaptopurine, reference compound]
Ascrit Packed Cell Vol. ([1]; Standard, dose not given): 2.5 | Percent Inhibition ([1]; Standard, dose not given): 99.9% | Vol(ml) Ascites Fluid ([1]; Standard, dose not given): 0.10 mL | No. of Animals Survived on Day 10 ([1]; mouse, in vivo): 6

CCOC(=O)C(C)(C)Oc1ccc(Cl)cc1 [clofibrate]
lowers serum cholesterol [2]: 6-15% | lowers serum triglyceride levels [2]: 25%
